This is an account of results in article PMC10997566, “Kinetic profiling of novel spirobenzo-oxazinepiperidinone derivatives as equilibrative nucleoside transporter 1 inhibitors” (Purinergic Signalling, 2023).

Assay [1] concerns the target T1, hENT1 (Homo sapiens, UniProt Q99808).
T1 sequence (Q99808 1-456): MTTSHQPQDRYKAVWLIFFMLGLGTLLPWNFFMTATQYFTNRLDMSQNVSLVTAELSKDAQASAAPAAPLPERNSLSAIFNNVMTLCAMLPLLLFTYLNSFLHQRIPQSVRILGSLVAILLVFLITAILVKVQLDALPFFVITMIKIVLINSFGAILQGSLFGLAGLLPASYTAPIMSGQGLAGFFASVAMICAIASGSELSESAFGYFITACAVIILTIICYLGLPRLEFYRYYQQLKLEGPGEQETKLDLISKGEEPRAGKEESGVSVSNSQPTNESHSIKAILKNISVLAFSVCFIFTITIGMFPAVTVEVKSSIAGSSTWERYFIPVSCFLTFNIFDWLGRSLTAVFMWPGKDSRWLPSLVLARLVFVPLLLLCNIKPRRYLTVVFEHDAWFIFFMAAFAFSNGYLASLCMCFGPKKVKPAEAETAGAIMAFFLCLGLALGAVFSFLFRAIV
Briefly: [3H]NBTI radioligand displacement assay. The following applies: Ki relative to compound 1.

The target in assay [2] is T1, hENT1. Nature of the assay: [3H]NBTI competition association assay (Motulsky and Mahan). The following applies: 10 °C; for RT (residence time): RT = 1/koff; for koff / kon: human erythrocyte membranes, competitor at IC50 concentration, mean ± SEM.
The target in assay [3] is T1, hENT1. Nature of the assay: Washout assay with [3H]NBTI binding after four wash cycles. Set-up: For our experiments, we used human erythrocytes as a source of hENT1; from tissue; host or cells: human erythrocytes (membrane preparation). The following applies: 10 °C; for inhibitor washed away (recovery of [3H]NBTI binding): 1 h pre-incubation at 10 × IC50, four wash and centrifugation cycles, erythrocyte membranes. How it is done: Centrifugation at 13,200 rpm (16,100 × g) at 4 °C for 5 min separated pellet and supernatant, with the latter containing the unbound ligand being removed. Pellets were resuspended in 1 mL of assay buffer, and samples were incubated for 10 min at 10 °C. In total, four centrifugation-washing cycles were performed. […] Rapid filtration through GF/C filters using a Brandel harvester (Brandel, Gaithersburg, MD) terminated the experiment. Filters were washed three times using ice-cold wash buffer and the samples were counted by scintillation spectrometry using a Tri-carb 2900 TR liquid scintillation counter (Perkin Elmer, Boston, MA).
A washout assay was used to validate the findings in the competition association assays (Fig. 2C). […] The unwashed condition was also similarly assessed, but no wash and centrifugation cycle occurred before the determination of radioligand binding. The results of both washed and unwashed samples were compared to the control condition without any competitor (100% washed and unwashed radioligand binding, respectively).

Assay [4] has as its target T1, hENT1. Set-up: For our experiments, we used human erythrocytes as a source of hENT1; from tissue; host or cells: human erythrocytes (membrane preparation); method as in PMID 31830468. The note with it: earlier study, same experimental protocol; cited from earlier work.

The koff is the rate constant with which the complex falls apart. Low values mean a long-lived complex, high ones a short-lived complex. In general, kon refers to the rate constant with which the complex forms. `CNc1cc2c(cc1Cl)C(=O)NC1(CCN(CCNC(=O)c3c(Cl)cccc3Cl)CC1)O2` [Compound 2]: at hENT1 [1], the “increase in affinity compared to 1” value was “approximately 30 fold”. Moreover, on hENT1 [2], the “RT (residence time)” value came out at 4.9 ± 1.1 min, the koff was determined as 0.00338 ± 0.000783 s⁻¹ and the on-rate (kon) is 2.05e+06 ± 483000 M⁻¹ s⁻¹.
The matching figures for `CN(C)c1cc2c(cc1Cl)C(=O)NC1(CCN(CCNC(=O)c3c(Cl)cccc3Cl)CC1)O2` [Compound 3]: “approximately 30 fold”, 6.6 ± 0.9 min, 0.00252 ± 0.000333 s⁻¹ and 2.63e+06 ± 800000 M⁻¹ s⁻¹.
With `CC(=O)Nc1cc2c(cc1Cl)C(=O)NC1(CCN(CCNC(=O)c3c(Cl)cccc3Cl)CC1)O2` [Compound 4], on hENT1 [2], the “RT (residence time)” value turned out to be 2.6 ± 0.7 min, the koff was 0.00643 ± 0.00178 s⁻¹ and the kon came out at 200000 ± 100000 M⁻¹ s⁻¹.
Turning to `COCNc1cc2c(cc1Cl)C(=O)NC1(CCN(CCNC(=O)c3c(Cl)cccc3Cl)CC1)O2` [Compound 5], on hENT1 [2], the “RT (residence time)” value turned out to be 5.4 ± 0.7 min, the koff worked out at 0.00308 ± 0.000383 s⁻¹ and the kon worked out at 600000 ± 100000 M⁻¹ s⁻¹.
`O=C1NC2(CCN(CCNC(=O)c3c(Cl)cccc3Cl)CC2)Oc2cc(NC3CCCC3)c(Cl)cc21` [Compound 6]: at hENT1 [2], the “RT (residence time)” value amounted to 21 ± 1.4 min, the koff was determined as 0.0008 ± 5e-05 s⁻¹ and the kon stood at 1.68e+06 ± 583000 M⁻¹ s⁻¹.
The matching figures for `CNCCCNc1cc2c(cc1Cl)C(=O)NC1(CCN(CCNC(=O)c3c(Cl)cccc3Cl)CC1)O2` [Compound 8]: 3.4 ± 0.6 min, 0.00493 ± 0.000833 s⁻¹ and 183000 ± 67000 M⁻¹ s⁻¹.
On to `CC(=O)NCCCNc1cc2c(cc1Cl)C(=O)NC1(CCN(CCNC(=O)c3c(Cl)cccc3Cl)CC1)O2` [Compound 9], for which, on hENT1 [2], the “RT (residence time)” value worked out at 10 ± 0.9 min, the koff stood at 0.0016 ± 0.00013 s⁻¹ and the kon amounted to 417000 ± 83000 M⁻¹ s⁻¹.
`CN(CCCNc1cc2c(cc1Cl)C(=O)NC1(CCN(CCNC(=O)c3c(Cl)cccc3Cl)CC1)O2)C(=O)OC(C)(C)C` [Compound 10]: on hENT1 [2], the “RT (residence time)” value is given as 26 ± 2.0 min, the koff was 0.000633 ± 5e-05 s⁻¹ and the kon is 550000 ± 50000 M⁻¹ s⁻¹.
Consider `O=C1NC2(CCN(CCNC(=O)c3c(Cl)cccc3Cl)CC2)Oc2cc(N3CCOCC3)c(Cl)cc21` [Compound 11], for which, at hENT1 [2], the “RT (residence time)” value was 16 ± 3.3 min, the koff was 0.00107 ± 0.000233 s⁻¹ and the kon came to 667000 ± 100000 M⁻¹ s⁻¹.
With `O=C1NC2(CCN(CCNC(=O)c3c(Cl)cccc3Cl)CC2)Oc2cc(N3CCNCC3)c(Cl)cc21` [Compound 12], at hENT1 [2], the “RT (residence time)” value is on record as 2.9 ± 0.2 min, the koff came out at 0.00583 ± 0.000433 s⁻¹ and the kon stood at 633000 ± 67000 M⁻¹ s⁻¹.
For the compound `CN1CCN(c2cc3c(cc2Cl)C(=O)NC2(CCN(CCNC(=O)c4c(Cl)cccc4Cl)CC2)O3)CC1` [Compound 13], at hENT1 [2], the “RT (residence time)” value was determined as 11 ± 0.5 min, the koff was determined as 0.00148 ± 6.7e-05 s⁻¹ and the kon came to 450000 ± 67000 M⁻¹ s⁻¹.
Take `CC(C)(C)OC(=O)N1CCN(c2cc3c(cc2Cl)C(=O)NC2(CCN(CCNC(=O)c4c(Cl)cccc4Cl)CC2)O3)CC1` [Compound 14]: at hENT1 [2], the “RT (residence time)” value was 38 ± 14 min, the koff stood at 0.00045 ± 0.000167 s⁻¹ and the kon was determined as 333000 ± 17000 M⁻¹ s⁻¹.
Consider `O=C1NC2(CCN(CCNC(=O)c3c(Cl)cccc3Cl)CC2)Oc2cc(NC3CCOCC3)c(Cl)cc21` [Compound 15], for which, at hENT1 [2], the “RT (residence time)” value is given as 10 ± 0.7 min, the koff is 0.00167 ± 0.00012 s⁻¹ and the kon came out at 550000 ± 130000 M⁻¹ s⁻¹.
As for `O=C1NC2(CCN(CCNC(=O)c3c(Cl)cccc3Cl)CC2)Oc2cc(NC3CCNCC3)c(Cl)cc21` [Compound 16], on hENT1 [2], the “RT (residence time)” value stood at 2.2 ± 0.4 min, the koff was found to be 0.00773 ± 0.00153 s⁻¹ and the kon was determined as 267000 ± 33000 M⁻¹ s⁻¹.
`CN1CCC(Nc2cc3c(cc2Cl)C(=O)NC2(CCN(CCNC(=O)c4c(Cl)cccc4Cl)CC2)O3)CC1` [Compound 17]: on hENT1 [2], the “RT (residence time)” value is recorded as 1.9 ± 0.1 min, the koff was 0.00892 ± 0.000517 s⁻¹ and the kon is 367000 ± 33000 M⁻¹ s⁻¹.
With `CC(=O)N1CCC(Nc2cc3c(cc2Cl)C(=O)NC2(CCN(CCNC(=O)c4c(Cl)cccc4Cl)CC2)O3)CC1` [Compound 18], the “inhibitor washed away (recovery of [3H]NBTI binding)” value (from here on “inhibitor washed away”) at hENT1 [3] is reported as “approximately 60%”. Moreover, at hENT1 [2], the “RT (residence time)” value amounted to 26 ± 6.5 min, the koff was determined as 0.000633 ± 0.00015 s⁻¹ and the kon amounted to 433000 ± 50000 M⁻¹ s⁻¹.
As for `CC(C)(C)OC(=O)N1CCC(Nc2cc3c(cc2Cl)C(=O)NC2(CCN(CCNC(=O)c4c(Cl)cccc4Cl)CC2)O3)CC1` [Compound 19], on hENT1 [2], the “RT (residence time)” value was 34 ± 9.7 min, the koff was 0.0005 ± 0.00015 s⁻¹ and the kon amounted to 317000 ± 17000 M⁻¹ s⁻¹.
As for `CC(C)Oc1cc2c(cc1Cl)C(=O)NC1(CCN(CCNC(=O)c3c(Cl)cccc3Cl)CC1)O2` [Compound 21], on hENT1 [2], the “RT (residence time)” value came out at 18 ± 3.6 min, the koff was 0.000933 ± 0.000183 s⁻¹ and the association rate constant (kon) amounted to 2.17e+06 ± 850000 M⁻¹ s⁻¹.
For `O=C1NC2(CCN(CCNC(=O)c3c(Cl)cccc3Cl)CC2)Oc2cc(OC3CCCC3)c(Cl)cc21` [Compound 22], in that order: 35 ± 7.6 min, 0.000483 ± 0.0001 s⁻¹ and 483000 ± 120000 M⁻¹ s⁻¹.
In the case of `O=C1NC2(CCN(CCNC(=O)c3c(Cl)cccc3Cl)CC2)Oc2cc(OC3CCNCC3)c(Cl)cc21` [Compound 23], the “inhibitor washed away” value on hENT1 [3] is reported as “completely washed away”. Besides, on hENT1 [2], the off-rate constant (koff) is 0.0034 ± 0.00085 s⁻¹ and the kon turned out to be 2.03e+06 ± 667000 M⁻¹ s⁻¹.
In the case of `CN1CCC(Oc2cc3c(cc2Cl)C(=O)NC2(CCN(CCNC(=O)c4c(Cl)cccc4Cl)CC2)O3)CC1` [Compound 24], on hENT1 [2], the koff was found to be 0.0069 ± 0.00142 s⁻¹ and the kon came out at 2.12e+06 ± 333000 M⁻¹ s⁻¹.
Take `CC(=O)N1CCC(Oc2cc3c(cc2Cl)C(=O)NC2(CCN(CCNC(=O)c4c(Cl)cccc4Cl)CC2)O3)CC1` [Compound 25]: on hENT1 [3], the “inhibitor washed away” value was determined as 37%. The “inhibitor still bound to the target” value at hENT1 [3] (after four extensive washing steps, 10 × IC50 pre-incubation) is reported as “more than 60%”. Besides, on hENT1 [2], the “RT (residence time)” value came out at 72 ± 14 min, the koff amounted to 0.000233 ± 5e-05 s⁻¹ and the kon was 533000 ± 67000 M⁻¹ s⁻¹.
Turning to `CC(=O)N1CCC(Oc2cc3c(cc2Cl)C(=O)CC2(CCN(CCNC(=O)c4c(Cl)cccc4Cl)CC2)O3)CC1` [Compound 26], at hENT1 [2], the “RT (residence time)” value is listed as 66 ± 20 min, the koff worked out at 0.00025 ± 8.3e-05 s⁻¹ and the kon was 717000 ± 130000 M⁻¹ s⁻¹.
The matching figures for `CC(=O)N1CCC(Oc2cc3c(cc2Cl)C(O)CC2(CCN(CCNC(=O)c4c(Cl)cccc4Cl)CC2)O3)CC1` (stereo not drawn) [Compound 27]: 79 ± 20 min, 0.000217 ± 5e-05 s⁻¹ and 900000 ± 250000 M⁻¹ s⁻¹.
`CC(=O)N1CCC(Oc2cc3c(cc2Cl)C=CC2(CCN(CCNC(=O)c4c(Cl)cccc4Cl)CC2)O3)CC1` [Compound 28]: at hENT1 [2], the “RT (residence time)” value was 87 ± 8.7 min, the koff amounted to 0.000183 ± 1.7e-05 s⁻¹ and the kon came to 1.62e+06 ± 120000 M⁻¹ s⁻¹.
`CC(=O)N1CCC(Oc2cc3c(cc2Cl)CCC2(CCN(CCNC(=O)c4c(Cl)cccc4Cl)CC2)O3)CC1` [Compound 29]: on hENT1 [2], the “RT (residence time)” value is 52 ± 20 min, the koff was determined as 0.000317 ± 0.00012 s⁻¹ and the kon was found to be 1.58e+06 ± 333000 M⁻¹ s⁻¹.
On to `NC(=O)C1CN(CCCCC(c2ccc(F)cc2)c2ccc(F)cc2)CCN1CC(=O)Nc1c(Cl)cc(N)cc1Cl` (stereo not drawn) [Draflazine], for which, on hENT1 [4], the RT is reported as 88 min.
As for `COc1cc(C(=O)OCCCN2CCCN(CCCOC(=O)c3cc(OC)c(OC)c(OC)c3)CC2)cc(OC)c1OC` [dilazep], the RT on hENT1 [4] is recorded as 44 min.
